Source: publication PMC12811658, “Design, Synthesis, and Structural Evolution of Pseudo‐Natural Product IDO1 Inhibitors and Degraders” (Angewandte Chemie (International Ed. in English), 2025)

Key:
[1] = target: IDO1 protein levels in BxPC3 cells (Homo sapiens, UniProt P14902); assay: IDO1 immunoblotting (degradation); format: cell-based; design: endogenous in cells; host or cells: BxPC3 (DSMZ), IFN-γ stimulated; details: for Max. degradation (%): 24 h incubation, mean ± SD; for Dmax at 0.1 µM: BXPC-3, @100 nM
Chain of IDO1 protein levels in BxPC3 cells (P14902 whole entry): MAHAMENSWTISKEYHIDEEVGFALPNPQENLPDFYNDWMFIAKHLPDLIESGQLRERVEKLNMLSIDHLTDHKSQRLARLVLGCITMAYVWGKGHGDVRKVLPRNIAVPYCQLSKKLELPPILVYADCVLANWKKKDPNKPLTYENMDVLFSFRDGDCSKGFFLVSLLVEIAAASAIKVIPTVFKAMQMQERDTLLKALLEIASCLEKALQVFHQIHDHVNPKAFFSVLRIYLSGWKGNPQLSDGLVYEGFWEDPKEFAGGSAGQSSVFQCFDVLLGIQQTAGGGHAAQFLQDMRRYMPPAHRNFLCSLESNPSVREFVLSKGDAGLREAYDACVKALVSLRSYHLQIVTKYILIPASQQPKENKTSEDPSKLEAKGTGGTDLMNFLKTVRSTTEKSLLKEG

[2] = target: T1, heme-bound IDO1 (holo-IDO1) (Homo sapiens, UniProt P14902); assay: UV/Vis detection of heme-bound IDO1 (heme displacement); format: binding; details: 50 µM
T1 construct: The GST-tag of IDO1 was removed to obtain untagged full-length IDO1l using PreScission protease; GST (N, cleaved yes); made in house; own inference
T1 sequence (P14902 whole entry): as above
Procedure: (§1) Incubation at 37 °C for 3 h. Representative data for n = 3. c) Time‐course of heme displacement from IDO1 detected by the absorbance at the Soret peak (404 nm) as a function of time. […] All curves were fit using a one‐site model with N = 1 and defined IDO1 concentration. Left plots show baseline corrected data, while right plots show integrated binding isotherms versus iDegs/IDO1 ratio. IDO1 protein (125 µM) was titrated into the stirred sample cell containing iDegs (25 µM, except for iDeg‐8 at 50 µM). Representative data for n = 3, except for iDeg‐9 (n = 2). g)–i) In vivo activity of iDeg‐6. NSG immunodeficient mice were injected with SKOV‐3 cells. Mice were treated with 18 intraperitoneal injections of iDeg‐6 (30 mg kg^−1) or vehicle. The pharmacological treatment was twice daily. Tumor volume was determined weekly by digital caliper. g) SKOV‐3 tumor growth curves in iDeg‐6‐treated mice (n = 12, green lines) or vehicle‐treated mice (n = 13, gray lines). Statistical analysis was performed by two‐way ANOVA: ****p < 0.001. h) Body weight changes during treatment window (mean values ± range). i) Survival data are shown by Kaplan‐Meier survival analysis. Mantel–Haenszel statistical analysis: p < 0.0001).
Representative data of n=3 biological replicates. c, IDO1 was incubated with compounds (50 µM) or DMSO (control). UV/VIS spectra were acquired at five time points to monitor heme loss over time. Data are representative of two replicates.
The test compounds or DMSO (vehicle control) were incubated with recombinant full-length human IDO1 (rhIDO1; 10 µM) in 50 mM potassium phosphate buffer (pH 6.5) for 3 h at 37 °C. Following incubation, samples were centrifuged at 5,000 × g for 10 minutes. UV/Vis absorption spectra were then recorded from 250 nm to 650 nm in 1 nm increments using UV-transparent microplates (UV-STAR®, Greiner Bio-One, Austria) on a Spark® multimode microplate reader (Tecan, Austria). Absorbance values were analyzed at 404 nm (A404), and were plotted using GraphPad Prism version 9.0 (GraphPad Software, USA).

recombinant human IDO1 = target: T2, recombinant human IDO1 (Homo sapiens, UniProt P14902); assay: IDO1 enzymatic assay in vitro; format: biochemical; details: for inhibition at 14 µM: mean ± SD; for in vitro IDO1 inhibition (in words): up to 14 µM, incubated with IDO1 for 45 min
T2 construct: The GST-tag of IDO1 was removed to obtain untagged full-length IDO1l using PreScission protease; GST (N, cleaved yes); made in house; own inference
T2 sequence (P14902 whole entry): as above

[3] = test system: Kyn levels in BxPC3 cells (kynurenine generated by IDO1); assay: Cellular Kyn assay (automated Kyn screening assay); format: cell-based; details: for IC50: Homo sapiens, BXPC-3, 48 h, IFN-γ, L-Trp and compounds 48 h, mean ± SD, read-out: IC50 (Kyn assay), reduction of kynurenine levels
[4] = target: T3, recombinant full-length human IDO1 (Homo sapiens, UniProt P14902); assay: Isothermal titration calorimetry (ITC); format: binding; details: 25 °C
T3 construct: The GST-tag of IDO1 was removed to obtain untagged full-length IDO1l using PreScission protease; GST (N, cleaved yes); made in house; own inference
T3 sequence (P14902 whole entry): as above
Procedure: as §1
ITC was performed using the MicroCal PEAQ-ITC system (Malvern) at 25 °C. Recombinant human full-length IDO1 (rhIDO1) was buffer-exchanged into 100 mM phosphate buffer (50 mM KH₂PO₄ and 50 mM K₂HPO₄, pH 6.57) with 1 mM TECP using a 10 K Amicon® Ultra centrifugal filter (Millipore). The buffer exchange was repeated ten times to ensure complete removal of interfering components. The final protein sample was diluted in the same phosphate buffer prior to titration.125 μM protein in 100 mM phosphate buffer was loaded into the syringe, while 25 μM compound (except for iDeg-8, 50 μM) in 100 mM phosphate buffer was loaded to the cell. All samples were adjusted to 25 °C and degassed before loading. Titrations were performed at 25 °C with one injection of 0.4 µL, followed by 18 injections of 2 µL. Experiments were performed with three biological replicates except for iDeg-9 with two biological replicates. Data were analyzed using the MicroCal PEAQ-ITC Analysis software and were plotted using GraphPad Prism 9.0 (GraphPad, USA).

[5] = pre-incubation 37 °C 45 min, determined if inhibition at 14 µM higher than 50%

## C#Cc1ccc(NC(=O)OC[C@]23CN(S(=O)(=O)c4ccc(C(C)(C)C(=O)O)cc4)C[C@H]2C[C@H]2C[C@@H]3C2(C)C)cc1 [101 (iDeg-7), 2-(4-(((3aS,4R,6R,7aS)-3a-((((4-ethynylphenyl)carbamoyl)oxy)methyl)-5,5-dimethyloctahydro-2H-4,6-methanoisoindol-2-yl)sulfonyl)phenyl)-2-methylpropanoic acid]
[1]; 10 nM
  Max. degradation (%): 36 ± 10 (5) %
[1]; 100 nM
  Max. degradation (%): 54 ± 8 (5) %
[1]; BxPC3 cells, IFN-γ 24 h, washout, compounds 24 h
  IDO1 protein level by immunoblotting (in words): only moderately reduced the IDO1 protein level
[2]; 37 °C, 3 h, Soret band 404 nm
  heme displacement from holo-IDO1 (in words): most efficient heme displacement
[2]; absorbance at 404 nm over time, compared to iDeg-6 and -8
  time course of heme displacement (in words): faster
Recombinant human IDO1; pre-incubation 37 °C 45 min
  inhibition at 14 µM: 75 ± 4%
Recombinant human IDO1; [5]
  IC50: 0.31 ± 0.06 µM
[3]
  IC50: 21 ± 6 nM
[4]
  -TΔS (ITC): 13.2 kcal/mol
  Kd: 122 nM
  ΔG (ITC): -9.4 kcal/mol
  ΔH (ITC): -22.6 ± 0.4 kcal/mol
[4]; one-site model
  Kd: 120 ± 20 nM

## C#Cc1ccc(NC(=O)OC[C@]23CN(S(=O)(=O)c4ccc(C(C)(C)C)cc4CC)C[C@H]2C[C@H]2C[C@@H]3C2(C)C)cc1 [99 (iDeg-8), ((3aS,4R,6R,7aS)-2-((4-(tert-butyl)-2-ethylphenyl)sulfonyl)-5,5-dimethyloctahydro-3aH-4,6-methanoisoindol-3a-yl)methyl (4-ethynylphenyl)carbamate]
[1]; 10 nM
  Max. degradation (%): 66 ± 4 (3) %
[1]; 100 nM
  Max. degradation (%): 75 ± 7 (3) %
[1]; BxPC3 cells
  Dmax at 0.1 µM: 75%
[1]; BxPC3 cells, ND: not detected, read-out: DC50 (half-maximal degradation concentration)
  DC50: 3 nM
Recombinant human IDO1; pre-incubation 37 °C 45 min
  inhibition at 14 µM: 61 ± 1%
Recombinant human IDO1; [5]
  IC50: 4 ± 3.3 µM
[3]
  IC50: 9.7 ± 2 nM
[4]
  -TΔS (ITC): 3.5 kcal/mol
  ΔG (ITC): -8.2 kcal/mol
  ΔH (ITC): -11.8 ± 0.7 kcal/mol
[4]; one-site model
  Kd: 940 nM

## CC(C)(C(=O)O)c1ccc(S(=O)(=O)N2C[C@H]3C[C@H]4C[C@H](C4(C)C)[C@@]3(COC(=O)Nc3ccc(I)cc3)C2)c(Cl)c1 [compound 96, 2-(3-chloro-4-(((3aS,4R,6R,7aS)-3a-((((4-iodophenyl)carbamoyl)oxy)methyl)-5,5-dimethyloctahydro-2H-4,6-methanoisoindol-2-yl)sulfonyl)phenyl)-2-methylpropanoic acid]
[1]; 10 nM
  Max. degradation (%): 15 ± 2 (3) %
[1]; 100 nM
  Max. degradation (%): 20 ± 12 (3) %
Recombinant human IDO1; pre-incubation 37 °C 45 min
  inhibition at 14 µM: 62 ± 1%
Recombinant human IDO1; [5]
  IC50: 0.19 ± 0.1 µM
[3]
  IC50: 14 ± 3 nM

## Cc1cc(C(C)(C)C)ccc1S(=O)(=O)N1C[C@H]2C[C@H]3C[C@H](C3(C)C)[C@@]2(COC(=O)Nc2ccc(I)cc2)C1 [79 (iDeg-4), ((3aS,4R,6R,7aS)-2-((4-(tert-butyl)-2-methylphenyl)sulfonyl)-5,5-dimethyloctahydro-3aH-4,6-methanoisoindol-3a-yl)methyl (4-iodophenyl)carbamate]
[1]; 10 nM
  Max. degradation (%): 31 ± 6 (3) %
[1]; 100 nM
  Max. degradation (%): 65 ± 10 (14) %
Recombinant human IDO1; pre-incubation 37 °C 45 min
  inhibition at 14 µM: 25 ± 5%
Recombinant human IDO1; [5]
  IC50: > 14 µM
Recombinant human IDO1
  in vitro IDO1 inhibition (in words): weak inhibitors
[3]
  IC50: 25 ± 5 nM

## C#Cc1ccc(NC(=O)OC[C@]23CN(S(=O)(=O)c4ccc(C(C)(C)C)cc4)C[C@H]2C[C@H]2C[C@@H]3C2(C)C)cc1 [43 (iDeg-3), ((3aS,4R,6R,7aS)-2-((4-(tert-butyl)phenyl)sulfonyl)-5,5-dimethyloctahydro-3aH-4,6-methanoisoindol-3a-yl)methyl (4-ethynylphenyl)carbamate]
[1]; 10 nM
  Max. degradation (%): 29 ± 16 (5) %
[1]; 100 nM
  Max. degradation (%): 62 ± 10 (5) %
[1]; 100 nM, BxPC3 cells, heatmap Fig. 3d
  Degradation Efficiency (%): 62%
Recombinant human IDO1; pre-incubation 37 °C 45 min
  inhibition at 14 µM: < 25%
Recombinant human IDO1; [5]
  IDO1 activity IC50 [µM] (in vitro assay): – (Inactive: >75% Kyn level observed up to a concentration of 14 µM and no IC50 value obtained)
[3]
  fold increase in potency compared to iDeg-2 in Kyn assay: three‐fold
  IC50: 46 ± 21 nM

## CCc1cc(C(C)(C)C)ccc1S(=O)(=O)N1C[C@H]2C[C@H]3C[C@H](C3(C)C)[C@@]2(COC(=O)Nc2ccc(I)cc2)C1 [compound 80, ((3aS,4R,6R,7aS)-2-((4-(tert-butyl)-2-ethylphenyl)sulfonyl)-5,5-dimethyloctahydro-3aH-4,6-methanoisoindol-3a-yl)methyl (4-iodophenyl)carbamate]
[1]; 10 nM
  Max. degradation (%): 25 ± 10 (3) %
[1]; 100 nM
  Max. degradation (%): 56 ± 4 (3) %
Recombinant human IDO1; pre-incubation 37 °C 45 min
  inhibition at 14 µM: 35 ± 8%
Recombinant human IDO1; [5]
  IC50: > 14 µM
Recombinant human IDO1
  in vitro IDO1 inhibition (in words): weak inhibitors
[3]
  IC50: 13 ± 3 nM

## COc1cc(C(C)(C)C(=O)O)ccc1S(=O)(=O)N1C[C@H]2C[C@H]3C[C@H](C3(C)C)[C@@]2(COC(=O)Nc2ccc(I)cc2)C1 [compound 95, 2-(4-(((3aS,4R,6R,7aS)-3a-((((4-iodophenyl)carbamoyl)oxy)methyl)-5,5-dimethyloctahydro-2H-4,6-methanoisoindol-2-yl)sulfonyl)-3-methoxyphenyl)-2-methylpropanoic acid]
[1]; 10 nM
  Max. degradation (%): Inactive (5)
[1]; 100 nM
  Max. degradation (%): Inactive (5)
Recombinant human IDO1; pre-incubation 37 °C 45 min
  inhibition at 14 µM: 57 ± 3%
Recombinant human IDO1; [5]
  IC50: 0.67 ± 0.1 µM
[3]
  IC50: 80 ± 22 nM

## CC(C)(C)c1ccc(S(=O)(=O)N2C[C@H]3C[C@H]4C[C@H](C4(C)C)[C@@]3(COC(=O)Nc3ccc(I)cc3)C2)c(C2CC2)c1 [compound 81, ((3aS,4R,6R,7aS)-2-((4-(tert-butyl)-2-cyclopropylphenyl)sulfonyl)-5,5-dimethyloctahydro-3aH-4,6-methanoisoindol-3a-yl)methyl (4-iodophenyl)carbamate]
[1]; 10 nM
  Max. degradation (%): 31 ± 18 (3) %
[1]; 100 nM
  Max. degradation (%): 55 ± 4 (3) %
Recombinant human IDO1; pre-incubation 37 °C 45 min
  inhibition at 14 µM: 39 ± 1%
Recombinant human IDO1; [5]
  IC50: > 14 µM
Recombinant human IDO1
  in vitro IDO1 inhibition (in words): weak inhibitors
[3]
  IC50: 19 ± 6 nM

## CC(C)(CC(=O)O)c1ccc(S(=O)(=O)N2C[C@H]3C[C@H]4C[C@H](C4(C)C)[C@@]3(COC(=O)Nc3ccc(I)cc3)C2)cc1 [compound 91, 3-(4-(((3aS,4R,6R,7aS)-3a-((((4-iodophenyl)carbamoyl)oxy)methyl)-5,5-dimethyloctahydro-2H-4,6-methanoisoindol-2-yl)sulfonyl)phenyl)-3-methylbutanoic acid]
[1]; 10 nM
  Max. degradation (%): 27 ± 5 (3) %
[1]; 100 nM
  Max. degradation (%): 36 ± 2 (3) %
[1]; BxPC3 cells
  Dmax at 0.1 µM: 36 to 54%
Recombinant human IDO1; pre-incubation 37 °C 45 min
  inhibition at 14 µM: 59 ± 2%
Recombinant human IDO1; [5]
  IC50: 1.9 ± 0.5 µM
[3]
  IC50: 32 ± 7 nM
